Test results reported in patent US20100267561A1, “HERBICIDAL PYRIDAZINONE DERIVATIVES” (priority 2007, published 2010).

Key:
Test in all cases: Test B pre-/postemergence plant response
Format in all cases: in vivo
[1] = tested on: Italian ryegrass (Lolium multiflorum); conditions: for Ryegrass, Italian plant response rating: 8 g ai/ha
Source text: (§1) Seeds of plant species selected from blackgrass (Alopecurus myosuroides), downy bromegrass (Bromus tectorum), green foxtail (Setaria viridis), Italian ryegrass (Lolium multiflorum), wheat (Triticum aestivum), wild oat (Avena fatua), catchweed bedstraw (Galium aparine), bermudagrass (Cynodon dactylon), surinam grass (Brachiaria decumbens), cocklebur (Xanthium strumarium), corn (Zea mays), large crabgrass (Digitaria sanguinalis), woolly cupgrass (Eriochloa villosa), giant foxtail (Setaria faberii), goosegrass (Eleusine indica), johnsongrass (Sorghum halepense), kochia (Kochia scoparia), lambsquarters (Chenopodium album), morningglory (Ipomoea coccinea), eastern black (E.B.) nightshade (Solanum ptycanthum), yellow nutsedge (Cyperus esculentus), pigweed (Amaranthus retroflexus), common ragweed (Ambrosia elation), Russian thistle (Salsola iberica), soybean (Glycine max), common (oilseed) sunflower (Helianthus annuus), and velvetleaf (Abutilon theophrasti) were planted and treated preemergence with test chemicals formulated in a non-phytotoxic solvent mixture which included a surfactant.
(§2) At the same time, plants selected from these crop and weed species and also winter barley (Hordeum vulgare), canarygrass (Phalaris minor), chickweed (Stellaria media) and windgrass (Apera spica-venti) were treated with postemergence applications of some of the test chemicals formulated in the same manner. Plants ranged in height from 2 to 18 cm (1- to 4-leaf stage) for postemergence treatments.
(§3) Plant species in the flooded paddy test consisted of rice (Oryza sativa), umbrella sedge (Cyperus difformis), ducksalad (Heteranthera limosa) and barnyardgrass (Echinochloa crus-galli) grown to the 2-leaf stage for testing. At time of treatment, test pots were flooded to 3 cm above the soil surface, treated by application of test compounds directly to the paddy water, and then maintained at that water depth for the duration of the test. Treated plants and controls were maintained in a greenhouse for 13 to 15 days, after which time all species were compared to controls and visually evaluated. Plant response ratings, summarized in Table B, are based on a scale of 0 to 100 where 0 is no effect and 100 is complete control. A dash (-) response means no test result.

[2] = tested on: blackgrass (Alopecurus myosuroides); conditions: for Blackgrass plant response rating: 8 g ai/ha
Source text: as §1, §2, §3

[3] = tested on: catchweed bedstraw (Galium aparine); conditions: Preemergence
Source text: as §1, §2, §3

[4] = tested on: downy bromegrass (Bromus tectorum); conditions: for Bromegrass, Downy plant response rating: 8 g ai/ha
Source text: as §1, §2, §3

[5] = tested on: eastern black (E.B.) nightshade (Solanum ptycanthum); conditions: Preemergence
Source text: as §1, §2, §3

[6] = tested on: giant foxtail (Setaria faberii); conditions: for Foxtail, Giant plant response rating: 8 g ai/ha
Source text: as §1, §2, §3

[7] = tested on: green foxtail (Setaria viridis); conditions: for Foxtail, Green plant response rating: 8 g ai/ha
Source text: as §1, §2, §3

[8] = tested on: johnsongrass (Sorghum halepense); conditions: for Johnsongrass plant response rating: 8 g ai/ha
Source text: as §1, §2, §3

[9] = tested on: morningglory (Ipomoea coccinea); conditions: for Morningglory plant response rating: 8 g ai/ha
Source text: as §1, §2, §3

[10] = tested on: pigweed (Amaranthus retroflexus); conditions: for Pigweed plant response rating: 8 g ai/ha
Source text: as §1, §2, §3

[11] = tested on: velvetleaf (Abutilon theophrasti); conditions: for Velvetleaf plant response rating: 8 g ai/ha
Source text: as §1, §2, §3

wild oat (Avena fatua) = conditions: for Oat, Wild plant response rating: 8 g ai/ha
Source text: as §1, §2, §3

[12] = tested on: woolly cupgrass (Eriochloa villosa); conditions: for Cupgrass, Woolly plant response rating: 8 g ai/ha
Source text: as §1, §2, §3

[13] = tested on: yellow nutsedge (Cyperus esculentus); conditions: for Nutsedge, Yellow plant response rating: 8 g ai/ha
Source text: as §1, §2, §3

[14] = Postemergence, 16 g ai/ha, scale 0 to 100
[15] = Postemergence, 31 g ai/ha, scale 0 to 100, 0 no effect, 100 complete control
[16] = Postemergence, 62 g ai/ha, scale 0 to 100, 0 no effect, 100 complete control
[17] = Preemergence, 16 g ai/ha, scale 0 to 100 (0 no effect, 100 complete control)
[18] = Preemergence, 31 g ai/ha, scale 0 to 100 (0 no effect, 100 complete control)
[19] = Preemergence, 62 g ai/ha, scale 0 to 100
[20] = Preemergence, 31 g ai/ha, 0 to 100 scale, 0 no effect, 100 complete control
[21] = 16 g ai/ha, scale 0 to 100 (0 no effect, 100 complete control)

CCCc1cc(-c2ccc(Cl)cc2)nn1-c1c(O)cnn(C)c1=O [Compound 43]
65: Plant response rating, Bromegrass, Downy [4, 16] | Plant response rating, Johnsongrass [8, 17]
80: Ryegrass, Italian plant response rating ([1]; postemergence, 0-100 scale) | Plant response rating, Bromegrass, Downy [4, 19] | Plant response rating, Johnsongrass [8, 15] | Plant response rating, Johnsongrass [8, 20] | Cupgrass, Woolly plant response rating ([12]; postemergence, 0-100 scale)
95: Plant response rating, Blackgrass [2, 15] | Plant response rating, Blackgrass [2, 17] | Foxtail, Giant plant response rating ([6]; Preemergence, scale 0 to 100) | Oat, Wild plant response rating (wild oat (Avena fatua); postemergence, 0-100 scale) | Plant response rating, Oat, Wild (wild oat (Avena fatua); [18]) | Plant response rating, Oat, Wild (wild oat (Avena fatua); [19]) | Plant response rating, Cupgrass, Woolly [12, 15] | Plant response rating, Cupgrass, Woolly [12, 16]
60: Plant response rating, Bromegrass, Downy [4, 15] | Foxtail, Green plant response rating ([7]; postemergence, 0-100 scale) | Plant response rating, Cupgrass, Woolly [12, 17]
45: Plant response rating, Bromegrass, Downy [4, 14]
20: Johnsongrass plant response rating ([8]; Preemergence, scale 0 to 100)
98: Plant response rating, Foxtail, Giant [6, 14] | Plant response rating, Foxtail, Giant [6, 15] | Plant response rating, Johnsongrass [8, 19] | Plant response rating, Cupgrass, Woolly [12, 20]
75: Plant response rating, Foxtail, Green [7, 14]
100: Plant response rating, Ryegrass, Italian [1, 15] | Plant response rating, Ryegrass, Italian [1, 16] | Plant response rating, Blackgrass [2, 16] | Plant response rating, Blackgrass [2, 20] | Plant response rating, Blackgrass [2, 19] | Plant response rating, Foxtail, Giant [6, 16] | Plant response rating, Foxtail, Giant [6, 17] | Plant response rating, Foxtail, Giant [6, 20] | Plant response rating, Foxtail, Giant [6, 19] | Plant response rating, Foxtail, Green [7, 15] | Plant response rating, Foxtail, Green [7, 16] | Plant response rating, Foxtail, Green [7, 17] | Plant response rating, Foxtail, Green [7, 20] | Plant response rating, Foxtail, Green [7, 19] | Foxtail, Green plant response rating ([7]; Preemergence, scale 0 to 100) | Plant response rating, Johnsongrass [8, 16] | Plant response rating, Oat, Wild (wild oat (Avena fatua); [14]) | Plant response rating, Oat, Wild (wild oat (Avena fatua); [15]) | Plant response rating, Oat, Wild (wild oat (Avena fatua); [16]) | Plant response rating, Cupgrass, Woolly [12, 19]
85: Blackgrass plant response rating ([2]; postemergence, 0-100 scale) | Plant response rating, Blackgrass [2, 14] | Foxtail, Giant plant response rating ([6]; postemergence, 0-100 scale)
70: Blackgrass plant response rating ([2]; Preemergence, scale 0 to 100) | Plant response rating, Bromegrass, Downy [4, 20] | Oat, Wild plant response rating (wild oat (Avena fatua); Preemergence, scale 0 to 100)
90: Plant response rating, Ryegrass, Italian [1, 14] | Plant response rating, Ryegrass, Italian [1, 17] | Plant response rating, Ryegrass, Italian [1, 18] | Plant response rating, Ryegrass, Italian [1, 19] | Ryegrass, Italian plant response rating ([1]; Preemergence, scale 0 to 100) | Plant response rating, Oat, Wild (wild oat (Avena fatua); [17]) | Plant response rating, Cupgrass, Woolly [12, 14]
0: Plant response rating, Galium [3, 21] | Plant response rating, Galium ([3]; 31 g ai/ha, 0 to 100 scale, 0 no effect, 100 complete control) | Plant response rating, Galium ([3]; 62 g ai/ha, scale 0 to 100) | Galium plant response rating ([3]; 8 g ai/ha, scale 0 to 100) | Plant response rating, Bromegrass, Downy [4, 17] | Bromegrass, Downy plant response rating ([4]; Preemergence, scale 0 to 100) | Plant response rating, Nightshade, E. B. [5, 21] | Plant response rating, Nightshade, E. B. ([5]; 31 g ai/ha, scale 0 to 100 (0 no effect, 100 complete control)) | Plant response rating, Nightshade, E. B. ([5]; 62 g ai/ha, scale 0 to 100) | Nightshade, E. B. plant response rating ([5]; 8 g ai/ha, scale 0 to 100) | Johnsongrass plant response rating ([8]; postemergence, 0-100 scale) | Plant response rating, Johnsongrass [8, 14] | Morningglory plant response rating ([9]; postemergence, 0-100 scale) | Plant response rating, Morningglory [9, 14] | Plant response rating, Morningglory [9, 15] | Plant response rating, Morningglory [9, 16] | Plant response rating, Morningglory [9, 17] | Plant response rating, Morningglory [9, 18] | Plant response rating, Morningglory [9, 19] | Morningglory plant response rating ([9]; Preemergence, scale 0 to 100) | Pigweed plant response rating ([10]; postemergence, 0-100 scale) | Plant response rating, Pigweed [10, 14] | Plant response rating, Pigweed [10, 15] | Plant response rating, Pigweed [10, 16] | Plant response rating, Pigweed [10, 17] | Plant response rating, Pigweed [10, 18] | Plant response rating, Pigweed [10, 19] | Pigweed plant response rating ([10]; Preemergence, scale 0 to 100) | Velvetleaf plant response rating ([11]; postemergence, 0-100 scale) | Plant response rating, Velvetleaf [11, 14] | Plant response rating, Velvetleaf [11, 16] | Plant response rating, Velvetleaf [11, 17] | Plant response rating, Velvetleaf [11, 18] | Plant response rating, Velvetleaf ([11]; Preemergence, 62 g ai/ha, 0 to 100 scale, 0 no effect, 100 complete control) | Velvetleaf plant response rating ([11]; Preemergence, scale 0 to 100) | Cupgrass, Woolly plant response rating ([12]; Preemergence, scale 0 to 100) | Nutsedge, Yellow plant response rating ([13]; postemergence, 0-100 scale) | Plant response rating, Nutsedge, Yellow [13, 14] | Plant response rating, Nutsedge, Yellow [13, 15] | Plant response rating, Nutsedge, Yellow [13, 16] | Plant response rating, Nutsedge, Yellow [13, 17] | Plant response rating, Nutsedge, Yellow [13, 18] | Plant response rating, Nutsedge, Yellow [13, 19] | Nutsedge, Yellow plant response rating ([13]; Preemergence, scale 0 to 100)
40: Bromegrass, Downy plant response rating ([4]; postemergence, 0-100 scale)
